29 compounds from patent publication US5698538A, “Boronic acid and ester inhibitors of thrombin” (The DuPont Merck Pharmaceutical Company, priority 1996, dated 1997) can be followed below.

What all share (assay type): biochemical
The target in one test is T1, human thrombin (Homo sapiens, UniProt P00734).
T1 construct: purchased Enzyme Research Laboratories, South Bend, Ind
Kind of test: Inhibition of human thrombin (chromogenic substrate S2238), inhibitory constant Ki. As to conditions: 0.2-0.5 nM human thrombin, S2238, pH 7.5, 30 minutes; read-out: Ki values for inhibition of Serine Proteases: Thrombin. The method, then:
(§1) The effectiveness of compounds of the present invention as inhibitors of blood coagulation proteases was determined using purified human proteases and synthetic substrates following procedures similar to those described in Kettner et al. (1990).
(§2) For these assays, the rate of enzymatic (thrombin, Factor Xa, and Factor VIIa) hydrolysis of chromogenic substrates (S2238 (H-D-Phe-Pip-Arg-pNA), S2222, and S2288, respectively; Kabi Pharmacia, Franklin, Ohio.) was measured both in the absence and presence of compounds of the present invention. […] A decrease in the rate of absorbance change at 405 nm in the presence of inhibitor is indicative of enzyme inhibition. The results of this assay are expressed as inhibitory constant, Ki.
(§3) Thrombin and Xa determinations were made in 0.10M sodium phosphate buffer, pH 7.5, containing 0.20M NaCl, and 0.5% PEG 8000. VIIa determinations were made in 0.05M tris buffer, pH 7.6, containing 0.10M NaCl, 4 mM CaCl2, and 0.1% bovine serum albumin. The Michaelis constant, Km, for substrate hydrolysis was determined at 5° C. using the method of Lineweaver and Burk.
(§4) Values of Ki were determined by allowing 0.2-0.5 nM human thrombin or human factor Xa (Enzyme Research Laboratories, South Bend, Ind.), or 50 nM human factor VIIa (BiosPacific, Emeryville, Calif.) react with the substrate (0.20 mM-1 mM) in the presence of inhibitor. Reactions were allowed to go for 30 minutes and the velocities (rate of absorbance change vs time) were measured in the time frame of 25-30 minutes. The following relationship was used to calculate Ki values. [formula] where: vo is the velocity of the control in the absence of inhibitor;
(§5) vs is the velocity in the presence of inhibitor;
(§6) I is the concentration of inhibitor;
(§7) Ki is the dissociation constant of the enzyme: inhibitor complex;
(§8) S is the concentration of substrate;
(§9) Km is the Michaelis constant.

The next test has as its target T2, human factor VIIa (Homo sapiens, UniProt P08709).
T2 construct: Factor VIIa in the extrinsic pathway; purchased BiosPacific, Emeryville, Calif
T2 sequence (P08709 213-466 limits assumed): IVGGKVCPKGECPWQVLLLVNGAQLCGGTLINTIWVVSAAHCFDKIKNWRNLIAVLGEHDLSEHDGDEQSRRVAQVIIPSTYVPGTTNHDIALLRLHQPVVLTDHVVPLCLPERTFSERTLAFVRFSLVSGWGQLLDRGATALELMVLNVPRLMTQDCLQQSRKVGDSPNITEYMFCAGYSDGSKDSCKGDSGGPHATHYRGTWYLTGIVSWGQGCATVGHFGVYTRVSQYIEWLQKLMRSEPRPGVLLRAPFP
T2 sequence (P08709 61-212 partner limits assumed): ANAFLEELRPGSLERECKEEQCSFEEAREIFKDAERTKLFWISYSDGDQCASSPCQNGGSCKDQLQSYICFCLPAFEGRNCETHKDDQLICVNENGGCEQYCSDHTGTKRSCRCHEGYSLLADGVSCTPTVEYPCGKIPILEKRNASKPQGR
Description: Inhibition of human factor VIIa (chromogenic substrate S2288), inhibitory constant Ki. Here is the method:
as §1, §2, §3, §4, §5, §6, §7, §8, §9

Another test deals with T3, human factor Xa (Homo sapiens, UniProt P00742).
T3 construct: purchased Enzyme Research Laboratories, South Bend, Ind
Description: Inhibition of human factor Xa (chromogenic substrate S2222), inhibitory constant Ki. As to conditions: S2222, pH 7.5, 30 minutes, read-out: Ki values for inhibition of Serine Proteases: Factor Xa. Here is the method: as §1, §2, §3, §4, §5, §6, §7, §8, §9

Where [1] appears, read: 50 nM human factor VIIa, S2288, pH 7.6, 4 mM CaCl2, 30 minutes, read-out: Ki values for inhibition of Serine Proteases: Factor VIIa.

By Ki is commonly meant a dissociation constant, usually derived from enzyme kinetics or from competition with a known ligand.

Molecules are shown by their SMILES. Like-named read-outs stand apart in the source and are kept apart here.

T3 sequence (P00742 235-488 limits assumed): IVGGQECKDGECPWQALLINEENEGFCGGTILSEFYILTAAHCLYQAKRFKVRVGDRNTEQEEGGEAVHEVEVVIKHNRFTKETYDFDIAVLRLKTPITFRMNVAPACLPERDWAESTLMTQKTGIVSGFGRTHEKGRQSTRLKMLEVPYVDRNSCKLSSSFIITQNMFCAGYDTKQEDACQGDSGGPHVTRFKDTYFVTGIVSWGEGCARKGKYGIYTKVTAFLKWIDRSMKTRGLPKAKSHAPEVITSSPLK
T3 sequence (P00742 41-179 partner limits assumed): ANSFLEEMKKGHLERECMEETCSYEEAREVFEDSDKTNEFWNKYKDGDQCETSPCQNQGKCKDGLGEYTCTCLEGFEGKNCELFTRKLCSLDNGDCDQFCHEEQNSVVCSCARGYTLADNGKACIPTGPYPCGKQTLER

As to `CC1(C)C2CC3OB([C@H](CCCCN)NC(=O)Cn4nc(Cc5ccccc5)nc4CO)OC3(C)C1C2` (single isomer, unassigned) [Example 2439], the Ki on human thrombin was below 0.5 µM; on human factor VIIa (setting [1]), 0.5 to 50 µM; on human factor Xa, 0.5 to 50 µM.
For the compound `CC1(C)C2CC3OB([C@H](CCCCN)NC(=O)Cn4nc(Cc5ccccc5)nc4COCc4ccccc4)OC3(C)C1C2` (single isomer, unassigned) [Example 2440], the Ki on human thrombin is below 0.5 µM; on human factor VIIa (setting [1]), 0.5 to 50 µM; at human factor Xa, 0.5 to 50 µM.
Regarding `CC1(C)C2CC3OB([C@H](CCCNC(=N)N)NC(=O)Cn4nc(Cc5ccccc5)nc4-c4ccccc4)OC3(C)C1C2` (single isomer, unassigned) [Example 2490], the Ki at human thrombin is below 0.5 µM; on human factor VIIa (setting [1]), below 0.5 µM; at human factor Xa, 0.5 to 50 µM.
In the case of `CC1(C)C2CC3OB([C@H](CCCNC(=N)N)NC(=O)Cn4nc(Cc5ccccc5)nc4-c4cccc([N+](=O)[O-])c4)OC3(C)C1C2` (single isomer, unassigned) [Example 2491], the Ki at human thrombin is below 0.5 µM; on human factor VIIa (setting [1]) it was 0.5 to 50 µM; at human factor Xa, below 0.5 µM.
In the case of `CC1(C)C2CC3OB([C@H](CCCCN)NC(=O)Cn4nc(CCc5ccccc5)nc4CO)OC3(C)C1C2` (single isomer, unassigned) [Example 2780], the values for the Ki on human thrombin, at human factor VIIa (setting [1]) and on human factor Xa were below 0.5 µM, below 0.5 µM and 0.5 to 50 µM, respectively.
`CC1(C)C2CC3OB([C@H](CCCCN)NC(=O)Cn4nc(CCc5ccccc5)nc4COCc4ccccc4)OC3(C)C1C2` (single isomer, unassigned) [Example 2781]: the results for the Ki on human thrombin, at human factor VIIa (setting [1]) and at human factor Xa were below 0.5 µM, 0.5 to 50 µM and 0.5 to 50 µM, respectively.
With `CC1(C)C2CC3OB([C@H](CCCCN)NC(=O)c4cnc(-c5ccccc5)nc4-c4ccccc4)OC3(C)C1C2` (single isomer, unassigned) [Example 3465], the Ki is below 0.5 µM on human thrombin, 0.5 to 50 µM on human factor VIIa (setting [1]) and 0.5 to 50 µM on human factor Xa.
For `CC1(C)[C@@H]2C[C@H]3OB([C@H](CCCNC(=N)N)NC(=O)c4cccc(-c5ccccc5)c4)O[C@@]3(C)[C@H]1C2` [Example 2], the Ki on human thrombin, at human factor VIIa (setting [1]) and at human factor Xa was below 0.5 µM each time.
Take `CC1(C)[C@@H]2C[C@H]3OB([C@H](CCCSC(=N)N)NC(=O)c4cccc(-c5ccccc5)c4)O[C@@]3(C)[C@H]1C2` [Example 35]: the Ki on human thrombin was below 0.5 µM; on human factor VIIa (setting [1]), 0.5 to 50 µM; on human factor Xa, below 0.5 µM.
On to `CC1(C)[C@@H]2C[C@H]3OB([C@H](CCCCN)NC(=O)c4cccc(-c5ccccc5)c4)O[C@@]3(C)[C@H]1C2` [Example 68], for which the Ki was below 50 µM on human thrombin, below 0.5 µM at human factor VIIa (setting [1]) and 0.5 to 50 µM on human factor Xa.
On the same counts, the results for `CC1(C)[C@@H]2C[C@H]3OB([C@H](CCCNC(=N)N)NC(=O)c4ccc(-c5ccccc5)cc4F)O[C@@]3(C)[C@H]1C2` [Example 199] are below 0.5 µM, below 0.5 µM and below 0.5 µM.
Consider `CC1(C)[C@@H]2C[C@H]3OB([C@H](CCCNC(=N)N)NC(=O)c4ccc(-c5ccccc5)cc4[N+](=O)[O-])O[C@@]3(C)[C@H]1C2` [Example 203], for which the Ki on human thrombin, on human factor VIIa (setting [1]) and at human factor Xa was below 0.5 µM in each case.
Consider `Cc1cc(-c2ccccc2S(=O)(=O)NC(C)(C)C)ccc1C(=O)N[C@@H](CCCNC(=N)N)B(O)O` [Example 224], for which the inhibition constant (Ki) at human thrombin, on human factor VIIa (setting [1]) and on human factor Xa was below 0.5 µM each time.
For the compound `Cc1cc(-c2ccccc2S(N)(=O)=O)ccc1C(=O)N[C@@H](CCCNC(=N)N)B1O[C@@H]2C[C@@H]3C[C@@H](C3(C)C)[C@]2(C)O1` [Example 227], the Ki was below 0.5 µM on human thrombin, 0.5 to 50 µM at human factor VIIa (setting [1]) and below 0.5 µM at human factor Xa.
Take `COC(=O)NS(=O)(=O)c1ccccc1-c1ccc(C(=O)N[C@@H](CCCNC(=N)N)B2O[C@@H]3C[C@@H]4C[C@@H](C4(C)C)[C@]3(C)O2)c(C)c1` [Example 231]: the figures for the Ki on human thrombin, on human factor VIIa (setting [1]) and at human factor Xa were below 0.5 µM, 0.5 to 50 µM and below 0.5 µM, respectively.
`CC(C)(C)NS(=O)(=O)c1ccccc1-c1ccc(C(=O)N[C@@H](CCCNC(=N)N)B2O[C@@H]3C[C@@H]4C[C@@H](C4(C)C)[C@]3(C)O2)cc1` [Example 261]: the Ki at human thrombin, on human factor VIIa (setting [1]) and at human factor Xa was below 0.5 µM throughout.
Turning to `CC(C)(C)NS(=O)(=O)c1ccccc1-c1ccc(C(=O)N[C@@H](CCCNC(=N)N)B2O[C@@H]3C[C@@H]4C[C@@H](C4(C)C)[C@]3(C)O2)c(Cl)c1` [Example 262], the Ki on human thrombin, at human factor VIIa (setting [1]) and on human factor Xa was below 0.5 µM each time.
For the compound `CC(C)(C)NS(=O)(=O)c1ccccc1-c1ccc(C(=O)N[C@@H](CCCNC(=N)N)B(O)O)cc1` [Example 263], the Ki at human thrombin, at human factor VIIa (setting [1]) and on human factor Xa was below 0.5 µM in each case.
`Cc1cc(-c2cccc(NC(=O)OC(C)(C)C)c2)ccc1C(=O)N[C@@H](CCCNC(=N)N)B1O[C@@H]2C[C@@H]3C[C@@H](C3(C)C)[C@]2(C)O1` [Example 283]: the Ki on human thrombin was below 0.5 µM; on human factor VIIa (setting [1]), 0.5 to 50 µM; at human factor Xa, below 0.5 µM.
In the case of `CCN(CC)S(=O)(=O)c1ccccc1-c1ccc(C(=O)N[C@@H](CCCNC(=N)N)B2O[C@@H]3C[C@@H]4C[C@@H](C4(C)C)[C@]3(C)O2)c(C)c1` [Example 286], the Ki at human thrombin, on human factor VIIa (setting [1]) and at human factor Xa was below 0.5 µM throughout.
Take `CC1(C)[C@@H]2C[C@H]3OB([C@H](CCCNC(=N)N)NC(=O)c4ccc(-c5ccccc5)c([N+](=O)[O-])c4)O[C@@]3(C)[C@H]1C2` [Example 298]: the Ki at human thrombin, at human factor VIIa (setting [1]) and at human factor Xa was below 0.5 µM in each case.
With `CC1(C)[C@@H]2C[C@H]3OB([C@H](CCCNC(=N)N)NC(=O)c4ccc(-c5ccccc5)c(N)c4)O[C@@]3(C)[C@H]1C2` [Example 299], the Ki on human thrombin, at human factor VIIa (setting [1]) and on human factor Xa was below 0.5 µM each time.
For the compound `CC(C)(C)NS(=O)(=O)c1ccccc1-c1ccc(C(=O)N[C@@H](CCCNC=N)B2O[C@@H]3C[C@@H]4C[C@@H](C4(C)C)[C@]3(C)O2)cc1` [Example 302], the Ki on human thrombin was below 0.5 µM; at human factor VIIa (setting [1]), 0.5 to 50 µM; on human factor Xa, below 0.5 µM.
For `CC(C)(C)OC(=O)Nc1cc(-c2ccccc2)ccc1C(=O)N[C@@H](CCCNC(=N)N)B1O[C@@H]2C[C@@H]3C[C@@H](C3(C)C)[C@]2(C)O1` [Example 303], the Ki at human thrombin was below 0.5 µM; on human factor VIIa (setting [1]) it was 0.5 to 50 µM; on human factor Xa, 0.5 to 50 µM.
Take `COCCC[C@H](NC(=O)c1ccc(-c2ccccc2S(N)(=O)=O)cc1C)B1O[C@@H]2C[C@@H]3C[C@@H](C3(C)C)[C@]2(C)O1` [Example 305]: the Ki was below 50 µM on human thrombin, 0.5 to 50 µM at human factor VIIa (setting [1]) and 0.5 to 50 µM at human factor Xa.
On to `CC1(C)[C@@H]2C[C@H]3OB([C@H](CCCCN)NC(=O)c4ccc(-c5ccccc5)nc4)O[C@@]3(C)[C@H]1C2` [Example 468], for which the Ki is below 50 µM at human thrombin, 0.5 to 50 µM at human factor VIIa (setting [1]) and 0.5 to 50 µM at human factor Xa.
For `NCCCC[C@H](NC(=O)c1ccc(-c2ccccc2)nc1)B(O)O` [Example 474], the Ki at human thrombin is below 50 µM; on human factor VIIa (setting [1]) it was 0.5 to 50 µM; on human factor Xa, 0.5 to 50 µM.
`Cc1nc(Cc2ccccc2)n(CC(=O)N[C@@H](CCCCN)B2O[C@@H]3C[C@@H]4C[C@@H](C4(C)C)[C@]3(C)O2)n1` [Example 888]: the Ki at human thrombin is below 0.5 µM; on human factor VIIa it was 0.5 to 50 µM; on human factor Xa it was 0.5 to 50 µM.
For the compound `CCCc1nc(Cc2ccccc2)n(CC(=O)N[C@@H](CCCCN)B2O[C@@H]3C[C@@H]4C[C@@H](C4(C)C)[C@]3(C)O2)n1` [Example 890], the Ki at human thrombin is below 0.5 µM; at human factor VIIa (setting [1]) it was 0.5 to 50 µM; on human factor Xa, 0.5 to 50 µM.
